Data from patent US20040210958A1, “A Novel Culture Method for Corn Transformation” (MONSANTO TECHNOLOGY LLC, priority 2003, published 2004).

System: nodal section explants from 7-day-old seedlings of corn line 106
Assay: Effect of seed germination medium on callus induction from nodal section explants (36-media screen)
Type: cell-based
Experimental: This example described experiments to determine the best combination of auxins and cytokinins in the germination tissue culture media. To improve the efficiency of callus induction from 106 seedlings, 36 different germination media were evaluated. Those media were MS-based with different combinations of picloram (0, 0.1, 1, 2.2, 5 or 10 mg/L) and BAP (0, 0.1, 1, 3, 5 or 10 mg/L) concentrations.

Structure (SMILES)	callus induction (% embryogenic calli per node) (germination medium picloram 0.10 mg/L, BAP 0.00 mg/L) [%]	callus induction (% embryogenic calli per node) (germination medium picloram 1.00 mg/L, BAP 0.00 mg/L) [%]	callus induction (% embryogenic calli per node) (germination medium picloram 2.20 mg/L, BAP 0.00 mg/L) [%]	callus induction (% embryogenic calli per node) (germination medium picloram 5.00 mg/L, BAP 0.00 mg/L) [%]	callus induction (% embryogenic calli per node) (germination medium picloram 10.00 mg/L, BAP 0.00 mg/L) [%]	callus induction (% embryogenic calli per node) (germination medium picloram 0.00 mg/L, BAP 0.10 mg/L) [%]	callus induction (% embryogenic calli per node) (germination medium picloram 0.00 mg/L, BAP 1.00 mg/L) [%]	callus induction (% embryogenic calli per node) (germination medium picloram 0.00 mg/L, BAP 3.00 mg/L) [%]	callus induction (% embryogenic calli per node) (germination medium picloram 0.00 mg/L, BAP 5.00 mg/L) [%]	callus induction (% embryogenic calli per node) (germination medium picloram 0.00 mg/L, BAP 10.00 mg/L) [%]
Nc1c(Cl)c(Cl)nc(C(=O)O)c1Cl [Picloram, 4-amino-3,5,6-trichloropicolinic acid]	0.00	9.52	9.52	19.05	4.76	–	–	–	–	–
c1ccc(CNc2ncnc3nc[nH]c23)cc1 [BAP, 6-benzylaminopurine]	–	–	–	–	–	4.76	0.00	14.29	0.00	0.00
